# Test results published in article PMC7926471 (Viruses, 2021).
# “Also recorded” adds a separate entry of the source. Where two headings read alike, the source gives them in different places.
# How the values were obtained:
# HCoV-229E [1] = experiment: Viral replication inhibition assay: HCoV-229E in MRC5 cells, PFU assay; assay type: cell-based, Human Coronavirus 229E
# Vero E6 cells = experiment: Cytotoxicity in Vero E6 cells (WST-1 assay among others); assay type: cell-based
# HCoV-229E [2] = test system: HCoV-229E; set-up: method as in earlier work; conditions: Huh7 cells; cited from earlier work
# MRC5 cells = experiment: Cytotoxicity in MRC5 cells, MTT assay; conditions: drugs tested against HCoV-229E
# [3] = Cytotoxicity in MRC5 cells, MTT assay; conditions: human
# MERS-CoV = conditions: in vitro; cited from earlier work
# in vitro = conditions: human
# SARS-CoV-2 [4] = experiment: SARS-CoV-2 replication in Vero E6 cells, qRT-PCR of envelop (E) gene
# [5] = single 500 mg oral dose; cited from earlier work
# SARS-CoV-2 [6] = conditions: cited from earlier work
# [7] = Cytotoxicity in Vero E6 cells (WST-1 assay among others); assay type: cell-based; conditions: African green monkey; Vero E6 cells, 48 h
# SARS-CoV-2 [8] = conditions: especially in primary human bronchial epithelium cells; cited from earlier work
# [9] = in vivo; cited from earlier work
# lung cancer = conditions: nasal administration; cited from earlier work
# SARS-CoV-2 [10] = conditions: SARS-CoV-2 infection; cited from earlier work
# [11] = test system: HCoV-229E, SARS-CoV and MERS-CoV; conditions: cited from earlier work
# [12] = Human coronavirus 229E, MRC5, 48 h, HCoV-229E in MRC5 cells, high titer MOI = 1, PFU assay after 48 h, read-out: EC50
# [13] = SARS-CoV-2 in Vero E6 cells, qRT-PCR after 48 h
structure (smiles),measurement,setting,value
"CCN(CC)CCCC(C)Nc1ccnc2cc(Cl)ccc12 (stereo not shown) [Chloroquine, chloroquine diphosphate]",reduction of the viral titer,HCoV-229E [1]; HCoV-229E,60%
same,EC50,HCoV-229E [1]; [12],0.005 mM
same,"HCoV-229E replication, low viral load (in words)","HCoV-229E [1]; MOI = 0.01, Figure 2",inhibits HCoV-229E replication
same,effect of combinatory treatment on HCoV-229E (in words),"HCoV-229E [1]; combinations of lopinavir/ritonavir, chloroquine, resveratrol, MOI 0.01, Figure 2B",did not observe a synergistic effect
same,effect when cells were treated before or after the infection (in words),"HCoV-229E [1]; pre-treated 3 h or post-treated 4 h, MOI 1, Figure 3",did not observe a significant difference
same,cytotoxicity on Vero E6 cells (in words),Vero E6 cells; 48 h,toxic; also recorded: high cytotoxicity
same,EC50,HCoV-229E [2],3.3 µM
"CCN(CC)C(=S)SSC(=S)N(CC)CC [Disulfiram, disulfiram]","SI (selectivity index, CC50/EC50)","HCoV-229E [1]; HCoV-229E, MRC5 cells",60.56
same,EC50,HCoV-229E [1]; [12],0.000139 mM
same,cytotoxicity (in words),MRC5 cells,highly cytotoxic
same,CC50 at 48 h,[3]; MRC5 cells,8.4 µM
"CN(C)C(=O)C(CCN1CCC(O)(c2ccc(Cl)cc2)CC1)(c1ccccc1)c1ccccc1 [Loperamide, loperamide]",cytotoxicity (in words),MRC5 cells,highly cytotoxic
same,CC50 at 48 h,[3],10.1 µM
"CO[C@H]1C[C@@H]2CC[C@@H](C)[C@@](O)(O2)C(=O)C(=O)N2CCCC[C@H]2C(=O)O[C@H]([C@H](C)C[C@@H]2CC[C@@H](O)[C@H](OC)C2)CC(=O)[C@H](C)/C=C(\C)[C@@H](O)[C@@H](OC)C(=O)[C@H](C)C[C@H](C)/C=C/C=C/C=C/1C [Rapamycin, rapamycin]",EC50,"HCoV-229E [1]; Human coronavirus 229E, MRC5, 48 h",0.00228 mM
same,reduction of MERS-CoV infection,MERS-CoV,over 60%
same,cytotoxicity (in words),MRC5 cells,highly cytotoxic
same,CC50 at 48 h,in vitro,2.5 µM
"Oc1ccc(/C=C/c2cc(O)cc(O)c2)cc1 [Resveratrol, resveratrol]",inhibition of SARS-CoV-2 replication,"SARS-CoV-2 [4]; 25 µM, Vero E6 cells",3 logs
same,EC50,SARS-CoV-2 [4]; [13],10.7 µM
same,EC90,SARS-CoV-2 [4]; [13],11.4 µM
same,reduction of the viral titer,HCoV-229E [1]; HCoV-229E,80%
same,Tmax,[5],1.3 h
same,EC50,SARS-CoV-2 [6],4.48 µM
same,non-cytotoxic doses,"Vero E6 cells; in vitro, Vero E6",up to 25 µM
same,CC50 at 48 h,[7],48.2 µM
same,replication of SARS-CoV-2 (in words),SARS-CoV-2 [8],inhibited the replication
same,bioavailability (in words),[9],poor bioavailability
same,reduction of tumor multiplicity,lung cancer,27%
same,reduction of tumor volume,lung cancer,45%
"CCCC(CCC)C(=O)O [VPA, valproic acid]",EC50,"HCoV-229E [1]; Human coronavirus 229E, MRC5, 48 h, HCoV-229E in MRC5 cells, PFU assay after 48 h, value in mM",1.34 mM
same,cytotoxicity (in words),MRC5 cells,highly cytotoxic
same,CC50 at 48 h,[3]; MRC5 cells,4000 µM
CCN(CCO)CCCC(C)Nc1ccnc2cc(Cl)ccc12 (stereo not shown) [hydroxychloroquine],EC90,SARS-CoV-2 [10],5.47 µM
Cc1cccc(C)c1OCC(=O)N[C@@H](Cc1ccccc1)[C@@H](O)C[C@H](Cc1ccccc1)NC(=O)[C@H](C(C)C)N1CCCNC1=O [lopinavir],EC50,"HCoV-229E [1]; HCoV-229E in MRC5 cells, high titer MOI = 1, PFU assay after 48 h, read-out: EC50",0.0088 mM
same,EC50,"HCoV-229E [1]; Human coronavirus 229E, MRC5, 48 h, HCoV-229E in MRC5 cells, high titer MOI = 1, PFU assay after 48 h",0.00881 mM
COc1cc(/C=C/c2ccc(O)cc2)cc(OC)c1 [pterostilbene],replication of SARS-CoV-2 (in words),SARS-CoV-2 [8],inhibited the replication
CC(C)c1nc(CN(C)C(=O)N[C@H](C(=O)N[C@@H](Cc2ccccc2)C[C@H](O)[C@H](Cc2ccccc2)NC(=O)OCc2cncs2)C(C)C)cs1 [ritonavir],anti-CoV activity (in words),[11],no selective anti-CoV activity
